Experimental data published in paper PMC8955139, “Identifying HSV-1 Inhibitors from Natural Compounds via Virtual Screening Targeting Surface Glycoprotein D” (Pharmaceuticals, 2022).
Read-outs that look alike come from different tables or passages of the source.

Legend:
[1] = test system: HSV-1; details: cited from earlier work
[2] = test system: HSV-1 strain F; test: Plaque reduction dose-response assay in VERO cells; type: cell-based; details: for EC50: Human alphaherpesvirus 1, plaque reduction
[3] = Cytotoxicity of ACs, WST-1, 24 h; details: African green monkey, VERO cells
[4] = test system: VERO cells; test: Cytotoxicity of ACs, WST-1, 24 h; details: for Toxicity to the cells: 10 µg/mL; for Highest Concentration with Cell Viability above 75%: 24 h, WST-1, tested 0.1-100 µg/mL; for Toxicity at the highest concentration tested compared with DMSO control: 100 µg/mL
[5] = test system: HSV-1 strain F; test: Time of addition cytopathic effect (CPE) inhibition assay; type: cell-based; details: for Antiherpetic activity in the in vitro assays: CPE inhibition, all stages, #28 at 10 µg/mL, #29 at 1 µg/mL
[6] = test system: VERO cells; test: Toxicity of AC#7 on VERO cells at high concentration (800 µM, 2 h exposure, 46 h); details: viability 46 h later, WST-1
[7] = test system: HSV-1; test: Pre-treatment of cells with AC#7 before HSV-1 infection (Figure S2); type: cell-based
[8] = test system: SARS-CoV 3CLpro; details: cited from earlier work
[9] = in vitro; details: African green monkey
[10] = test system: ACV-resistant HSV-1; set-up: method as in PMID 9660995; details: in vivo; cited from earlier work

## Nc1nc2c(ncn2COCCO)c(=O)[nH]1 [ACV, 9-((2-Hydroxyethoxy)methyl) guanine, reference compound]
[1]; in vitro
  EC50: ~1 µM
[2]; added post-HSV infection, VERO, R2 > 0.99
  EC50: 0.77 µM

## Cc1ccc(Cl)cc1N1CCN(C[C@H]2C(=O)O[C@@H]3C[C@@]4(C)CCC[C@H](C)[C@@]45O[C@H]5[C@@H]32)CC1 [AC#17, (1Ar,2S,5Ar,6Ar,9S,9Ar,9Bs)-9-( (4-(5-chloro-2-methylphenyl)piperazin-1-yl)methyl)-2,5a-dimethyloctahydro-2H-oxireno[2′,3′:4,4a]naphtho[2,3-b]furan-8(9Bh)-one]
[3]
  viability at 24 h: 96.8%
[4]
  Toxicity to the cells: exhibited toxicity
  Highest Concentration with Cell Viability above 75%: 1 µg/mL

## O=c1c(-c2c3cn[nH]c3nc3c2oc2cc(O)ccc23)cc2cccc3c2n1CC3 [AC#27]
[3]
  viability at 24 h: 106%
[4]
  Toxicity at the highest concentration tested compared with DMSO control: negligible toxicity
  Highest Concentration with Cell Viability above 75%: >100 µg/mL
[5]; 10 µg/mL, AC added 1 h after infection, MOI 5, VERO
  Antiviral activity at the post-entry stage: possess antiherpetic activity

## Cc1cc(O)c2c(c1)C(=O)c1cc(O)cc(O)c1C2=O [emodin]
[1]; antiviral activity
  EC50: 21.5 to 195 µM

## O=C(/C=C1\NCCc2cc3c(cc21)OCO3)c1cc2ccccc2o1 [AC#7, 1-(1-benzofuran-2-yl)-2-[(5Z)-2H,6H,7H,8H-[1,3]dioxolo [4,5-g]isoquinoline-5-ylidene]ethenone]
[6]
  Toxicity to VERO cells: Negligible toxicity
[2]; 25 µM, virus preincubated 1 h, VERO
  Reduction of virus-induced plaques compared to DMSO control: significantly reduced the number of virus-induced plaques
[2]; 6.25-400 µM, pre-incubated with the virus, vs DMSO control
  Dose dependence of antiviral response: dose-dependent antiviral response
[2]; virus preincubated with AC 1 h, VERO
  EC50: 61 µg/mL
[2]; virus preincubated with AC 1 h, VERO, asymmetric nonlinear regression R2 = 0.84
  EC50: 183 µM
[7]; 10 µg/mL, 1 h before infection, MOI 5, VERO
  Antiviral activity when cells were preincubated with AC prior to HSV-1 infection: No antiviral activity
[7]; 10 µg/mL, cells pre-treated 1 h, MOI=5, 48 h
  Cell survival rate: 7.7%
[7]; Human alphaherpesvirus 1, cells pre-treated 1 h, MOI=5, 48 h
  inhibition at 10 µg/mL: 0%
[3]
  viability at 24 h: 124%
[4]
  Toxicity at the highest concentration tested compared with DMSO control: negligible toxicity
  Highest Concentration with Cell Viability above 75%: >100 µg/mL
[5]; 10 µg/mL, virus preincubated with AC 1 h, MOI 5, VERO, vs DMSO control
  Antiviral activity at the viral inactivation stage: significantly higher activity than the DMSO control

## CCOC(=O)/C=C/[C@H](C[C@@H]1CCNC1=O)NC(=O)[C@@H](CC(=O)[C@@H](NC(=O)c1cc(C)on1)C(C)C)Cc1ccc(F)cc1 [rupintrivir]
[8]
  Inhibition of SARS-CoV 3CLpro: weak to undetectable inhibition

## O=C1NC(=O)c2c1c1c3ccccc3[nH]c1c1[nH]c3ccccc3c21 [AC#29, Arcyriaflavin A]
[9]
  viability at 24 h: 86.2%
[5]
  Antiherpetic activity in the in vitro assays: failed to show antiherpetic activity

## COc1cc(/C=C/C(=O)CC(=O)/C=C/c2ccc(O)c(OC)c2)ccc1O [curcumin]
[1]; antiviral activity
  EC50: 89.6 µM

## CN1CCN(C(=O)CCn2c3c(c4ccccc42)CCn2c-3nc3ccccc3c2=O)CC1 [AC#10, 13-[3-(4-methylpiperazin-1-yl)-3-oxopropyl]-8,13-dihydroindolo[2′,3′:3,4] pyrido [2,1-b]quinazolin-5(7H)-one]
[3]
  viability at 24 h: 73.2%
[4]
  Toxicity to the cells: exhibited toxicity
  Highest Concentration with Cell Viability above 75%: 1 µg/mL

## O=C(CC1NC(=O)c2ccccc21)Nc1ccc2c(c1)C(=O)N1CCC[C@H]1C(=O)N2 (stereo partly drawn) [AC#28, N-((S)-5,11-dioxo-2,3,5,10,11,11a-hexahydro-1H-benzo[e]pyrrolo[1,2-a][1,4]diazepin-7-yl)-2-(3-oxoisoindolin-1-yl)acetamide]
[3]
  viability at 24 h: 105%
[4]
  Toxicity at the highest concentration tested compared with DMSO control: negligible toxicity
  Highest Concentration with Cell Viability above 75%: >100 µg/mL
[5]
  Antiherpetic activity in the in vitro assays: failed to show antiherpetic activity

## C[C@H]1CCC[C@]2(C)C[C@H]3OC(=O)[C@H](CN4CCN(c5ccccc5)CC4)[C@H]3[C@@H]3O[C@@]132 [AC#16, (1Ar,2S,5Ar,6Ar,9S,9Ar,9Bs)-2,5a-dimethyl-9-((4-phenylpiperazin-1-yl)methyl)octahydro-2H-oxireno[2′,3′:4,4a]naphtho[2,3-b]furan-8(9Bh)-one]
[3]
  viability at 24 h: 102%
[4]
  Toxicity to the cells: exhibited toxicity
  Highest Concentration with Cell Viability above 75%: 1 µg/mL

## O=C(O[C@@H]1Cc2c(O)cc(O)cc2O[C@@H]1c1cc(O)c(O)c(O)c1)c1cc(O)c(O)c(O)c1 [epigallocatechin gallate]
[1]; antiviral activity
  EC50: 12.5 to 50 µM

## CC[C@@H](NC(=O)[C@@H](CC(=O)[C@@H](CC(=O)[C@@H](NC(=O)[C@H](C(C)C)N(C)C(=O)[C@H](C)CC1CCCCC1)C(C)(C)C)CC(=O)C(C)(C)C)C1(C(=O)O)CCCC1)C(C)(C)C [BILD 1633 SE]
[1]; in vitro
  Antiviral activity in vitro relative to ACV: higher antiviral activity than ACV
[10]
  Therapeutic effect against ACV-resistant HSV-1 infections: potent therapeutic effect
